# Measured values reported in patent US4120857A, “Derivatives of 1,2,3,3-tetramethyl-2-azabicyclo[2.2.2]octan-5-endo-ol” (priority 1977, dated 1978).
# Where two headings read alike, the source gives them in different places.
# How the values were obtained:
# [1] = system: genetically hypertensive (spontaneously hypertensive) rats of the Okamato strain; assay: Spontaneously Hypertensive Rat Test (antihypertensive activity); type: in vivo; conditions: po, compounds dosed orally, five animals per test dose, read-out: MED (minimum effective dose), dose required to give a minimum of a 20 mm Hg drop in blood pressure from control
# From the text: Clin. Med. 78:957-962 (1971). Five animals were used for each test dose. Results of the test are expressed in the table below as the MED (minimum effective dose) or dose required to give a minimum of a 20 mm Hg drop in blood pressure from control. | *compounds dosed orally
# [2] = system: ventricular fibrillation by chloroform; assay: Mouse Chloroform Test (antiarrhythmic activity); type: in vivo, female swiss albino mice; conditions: mice; for ED50: Mus musculus, read-out: ED50, dose required to protect 50% of the test animals against development of ventricular fibrillation by chloroform
# Method: 160:22-30 (1968). The test compounds were administered orally (p.o.) or intraperitoneally (i.p.) to female swiss albino mice weighing 16-24 grams. The arrhythmia induced by the chloroform was monitored by electrocardiogram recording and the normal and abnormal heart beats were tabulated.
# [3] = system: corneal reflex; assay: Local Anesthetic Test (corneal reflex procedure); type: in vivo, rabbits; conditions: one drop into the conjunctival sac of one rabbit eye; isotonic saline
# Method: In this test a corneal reflex was elicited in rabbits by lightly touching the cornea with a stiff hair or bristle which normally would cause the rabbit to blink. The assay was carried out using initially a 2% solution or suspension of the test compound in isotonic saline. A cup or pouch was formed of the lower eyelid by pulling down the lower lid, and one drop of the test compound was instilled into the conjunctival sac of one eye. The other eye serves as a control. The corneal reflex was tested every fifteen minutes until the reflex returned to normal. If the reflex could be elicited 3 out of 5 times, then there was considered to be no local anesthetic effect. If the reflex was blocked and the compound was determined to be a local anesthetic, lower concentrations were tested to determine the minimum concentration needed for local anesthetic activity. Results for several of the compounds of the present invention are expressed in the table below as the MEC (minimum effective concentration) or minimum concentration of compound required for local anesthetic activity.
Structure (SMILES),ED50 ([2]; ip) [mg/kg],ED50 ([2]; po) [mg/kg],"MEC (minimum effective concentration), minimum concentration of compound required for local anesthetic activity [3] [%]",also measured
"CC(=O)O[C@@H]1C[C@@]2(C)CC[C@@H]1C(C)(C)N2C (relative stereo) [Example 1, 5-endo-Acetoxy-1,2,3,3-tetramethyl-2-azabicyclo[2.2.2]-octane]",,,,minimal effective dose [1]: 12.5 mg/kg
"CN1C(C)(C)[C@H]2CC[C@]1(C)C[C@H]2OC(=O)C1CC1 (relative stereo) [Example 2A, 5-endo-Cyclopropylcarbonyloxy-1,2,3,3-tetramethyl-2-azabicyclo-[2.2.2]octane]",,,,minimal effective dose [1]: 25 mg/kg
"COc1cc(C(=O)O[C@@H]2C[C@@]3(C)CC[C@@H]2C(C)(C)N3C)cc(OC)c1OC (relative stereo) [Example 2C, 5-endo-(3,4,5-Trimethoxybenzoyl-oxy)-1,2,3,3-tetramethyl-2-azabicyclo[2.2.2]octane]",50,,,
"CCCC(=O)O[C@@H]1C[C@@]2(C)CC[C@@H]1C(C)(C)N2C (relative stereo) [Example 2D, 5-endo-Butyryloxy-1,2,3,3-tetramethyl-2-azabicyclo[2.2.2]-octane]",,80,,
"CN1C(C)(C)[C@H]2CC[C@]1(C)C[C@H]2OC(=O)c1ccc(N)cc1 (relative stereo) [Example 2F, 5-endo-(p-Aminobenzoyloxy)-1,2,3,3-tetramethyl-2-azabicyclo-[2.2.2]octane]",6.3,25,2.0,
"CN1C(C)(C)[C@H]2CC[C@]1(C)C[C@H]2OC(=O)C(c1ccccc1)c1ccccc1 (relative stereo) [Example 2G, 5-endo-(Diphenylacetoxy)-1,2,3,3-tetramethyl-2-azabicyclo[2.2.2]-octane]",12.5,20,0.25,
"CN1C(C)(C)[C@H]2CC[C@]1(C)C[C@H]2OCCCNC(=O)c1ccccc1 (relative stereo) [Example 3, 5-endo-(3-Benzoylaminopropyloxy)-1,2,3,3-tetramethyl-2-azabicyclo[2.2.2]octane]",,10,0.5,
"CN1C(C)(C)[C@H]2CC[C@]1(C)C[C@H]2OCCCNC(=O)C(c1ccccc1)c1ccccc1 (relative stereo) [Example 4, 5-endo-(3-Diphenylacetylaminopropyloxy)-1,2,3,3-tetramethyl-2-azabicyclo[2.2.2]octane]",,10,0.5,
"CN1C(C)(C)[C@H]2CC[C@]1(C)C[C@H]2OC(=O)Nc1ccccc1 (relative stereo) [Example 5, 5-endo-Phenylcarbamoyloxy-1,2,3,3-tetramethyl-2-azabicyclo[2.2.2]octane]",,44,,
"CN1C2(C)CCC(C(OC(=O)c3ccccc3)C2)C1(C)C (stereo not drawn) [Example 2B, 5-endo-Benzoyloxy-1,2,3,3-tetramethyl-2-azabicyclo(2.2.2]-octane]",,,,"ED50, dose required to protect 50% of the test animals against development of ventricular fibrillation by chloroform ([2]; i.p.): 50 mg/kg"
